The conditions of series [1]: prior art U.S. Pat. No. 4,169,888, EP-A-0154445, EP-A-0339681; cited from earlier work.
The subject of another series is Sarcoma 180 tumor cells. The series can be described thus: Therapeutic Effect against Sarcoma 180 Tumor Cells. The series is classed as in vivo, male ddY-strain mice. The note with it: intravenous, seven days after implantation. Here is the method: Five male ddY-strain mice each having a weight of 18 to 20 g were used for each group as test animals, and 5×10^5 Sarcoma 180 tumor cells were implanted subcutaneously into the animals at the axilla. Ond day after the implantation, 0.2 ml of physiological saline containing a test compound in the concentration indicated in Table 3 was intravenously administered to each mouse. T/C [T: average tumor volume (mm^3) of the groups treated with the test compound, C: that of the control group which received an intravenous administration of 0.2 ml of physiological saline] was determined seven days after the implantation.

The next series has as its system dd strain male mice. The series can be described thus: Acute Toxicity Test. It counts as in vivo. Conditions: intraperitoneal, 14 days after administration. How it is done:
A test compound was intraperitoneally administered to dd strain male mice each weighing 20 ±1 g. MLD (the minimum lethal dose) was determined by observing the mortality for 14 days after the administration.

A further series has as its system various bacteria. Conditions: prior art WO 87/06265, EP-A-0351865, JP 139590/89; cited from earlier work.
The subject of series [2] is lymphocytic leukemia P388. Conditions: prior art WO 87/06265, EP-A-0351865, JP 139590/89; cited from earlier work.

As to `COc1c(O)c2c(c3cc(C(=O)N4CCc5c4c(O)c(OC)c4[nH]c(C(=O)N6CC7CC78C6=CC(=O)c6[nH]cc(C)c68)cc54)[nH]c13)CCN2C(N)=O` (centres unmarked) [CC-1065], the anti-tumor activity result in series [1] is given as “exhibit anti-tumor activity”.
`COC(=O)c1c(C)[nH]c2c(O[Si](C)(C)C(C)(C)C)cc3c(c12)C(CBr)CN3C(=O)c1cc2cc(OC)c(OC)c(OC)c2[nH]1` (centres unmarked) [Compound 1]: in the series with Sarcoma 180 tumor cells (dose 0.25 mg/kg), the “Sarcoma 180 T/C (average tumor volume, treated/control)” value was 0.043. For the same molecule, the “Acute Toxicity (MLD), minimum lethal dose” value (“Acute Toxicity (MLD)” below) in the series on dd strain male mice is listed as 1.0 mg/kg.
As to `COC(=O)c1c(C)[nH]c2c(O)cc3c(c12)C(CCl)CN3C(=O)c1cc2cc(OC)c(OC)c(OC)c2[nH]1` (centres unmarked) [Compound 2], the “Acute Toxicity (MLD)” value in the series on dd strain male mice was 1.0 mg/kg.
Regarding `COC(=O)c1c(C)[nH]c2c1C13CC1CN(C(=O)c1cc4cc(OC)c(OC)c(OC)c4[nH]1)C3=CC2=O` (centres unmarked) [Compound 4], the “Sarcoma 180 T/C (average tumor volume, treated/control)” value in the series on Sarcoma 180 tumor cells (dose 0.25 mg/kg) was 0.21. Also, in the series on dd strain male mice, the “Acute Toxicity (MLD)” value is 0.5 mg/kg.
With `COC(=O)c1c(C)[nH]c2c(OC(=O)N(C)C)cc3c(c12)C(CBr)CN3C(=O)c1cc2cc(OC)c(OC)c(OC)c2[nH]1` (centres unmarked) [Compound 13], in the series on Sarcoma 180 tumor cells (dose 1.0 mg/kg), the “Sarcoma 180 T/C (average tumor volume, treated/control)” value came out at 0.063. The “Acute Toxicity (MLD)” value with dd strain male mice was found to be 1.0 mg/kg.
As for `COC(=O)c1c(C)[nH]c2c(OC(=O)N3CCCCC3)cc3c(c12)C(CBr)CN3C(=O)c1cc2cc(OC)c(OC)c(OC)c2[nH]1` (centres unmarked) [Compound 14], the “Sarcoma 180 T/C (average tumor volume, treated/control)” value in the series with Sarcoma 180 tumor cells (dose 0.50 mg/kg) was 0.20; in the series with Sarcoma 180 tumor cells (dose 1.0 mg/kg) it was 0.098. The “Acute Toxicity (MLD)” value in the series on dd strain male mice was found to be 1.0 mg/kg.
Consider `COC(=O)c1c(C)[nH]c2c(OC(=O)N3CCCC3)cc3c(c12)C(CBr)CN3C(=O)c1cc2cc(OC)c(OC)c(OC)c2[nH]1` (centres unmarked) [Compound 15], for which the “Sarcoma 180 T/C (average tumor volume, treated/control)” value came out at 0.21 in the series on Sarcoma 180 tumor cells (dose 0.50 mg/kg) and 0.088 with Sarcoma 180 tumor cells (dose 1.0 mg/kg). In addition, in the series with dd strain male mice, the “Acute Toxicity (MLD)” value came to 1.0 mg/kg.
For the molecule `COC(=O)c1c(C)[nH]c2c(OC(=O)N3CCN(C)CC3)cc3c(c12)C(CBr)CN3C(=O)c1cc2cc(OC)c(OC)c(OC)c2[nH]1` (centres unmarked) [Compound 16], the “Sarcoma 180 T/C (average tumor volume, treated/control)” value in the series on Sarcoma 180 tumor cells (dose 0.50 mg/kg, 0.5 mg/kg) was found to be 0.24. Further, the “Acute Toxicity (MLD)” value in the series with dd strain male mice came out at 1.0 mg/kg.
For `COC(=O)c1c(C)[nH]c2c(OC(=O)N3CCN(C)CC3)cc3c(c12)C(CBr)CN3C(=O)c1cc2cc(OC)c(OC)c(OC)c2[nH]1` (centres unmarked) [Compound 18] the same measures were 0.14 and 0.84 mg/kg.
Regarding `COC(=O)C1(C)NC2=C(C1=O)C13CC1CN(C(=O)c1cc4cc(OC)c(OC)c(OC)c4[nH]1)C3=CC2=O` (centres unmarked) [DC-88A], the antibacterial activity result in the series on various bacteria is on record as “antibacterial activity against various bacteria”. Besides, the “anti-tumor activity against lymphocytic leukemia P388” value in series [2] is listed as “anti-tumor activity against lymphocytic leukemia P388”.

These data come from patent US5070092A, “Pyrroloindole derivatives related to DC-88A compound” (Kyowa Hakko Kogyo Co., Ltd., priority 1989, dated 1991).
